Assay results taken from US6780883B2, “Amide inhibitors of microsomal triglyceride transfer protein” (Warner-Lambert Company, priority 1998, dated 2004).

Assays:
[1] = test system: Lp(a) production in HepG2^K17 cells; assay: LPA3 screen: inhibition of Lp(a) production in transfected HepG2 cells, Lp(a) in media by ELISA; format: cell-based; conditions: Homo sapiens, 8 hours, 0.3 to 50 μM compound, Lp(a) normalized for total protein, read-out: Lp A3 IC50
Protocol: The LPA3 screen is used to identify compounds that inhibit Lp(a) production. This screen employs permanently transfected HepG2 cells (HepG2^K17) that are generated using an apo(a) 17-kringle cDNA expression construct (pcDNA-AMP, In Vitrogen, Carlsbad, Calif.) in accordance with methods that are well-known in molecular biology.
HepG2^K17 cells are seeded in 96-well plates at a density of 75,000 cells per well in 0.25 mL of Dulbecco's Modified Eagle Media (DMEM) containing 10% fetal bovine serum (FBS). Seeded plates are incubated overnight in a 37° C., 5% CO2/95% 02 incubator. The media is removed, replaced with (1) fresh media, or (2) fresh media plus 0.3 to 50 μM of a compound of the present invention in 20 μL of PBS, and the plates returned to the incubator for 8 hours. After the additional 8 hours of incubation, Lp(a) is assayed in the media by ELISA. Cells are digested with 0.5N NaOH overnight and assayed for total protein. Lp(a) values are normalized for total protein content.

[2] = target: apolipoprotein(a), [apo(a)], apolipoproteinB-100, [apoB-100], coupling reaction that generates Lp(a) (Homo sapiens, UniProt P04114+P08519); assay: LPABC screen: lipoprotein(a) biochemical coupling assay, Lp(a) content by ELISA; conditions: recombinant apo(a) 17-kringle (293 cell media) + HepG2 conditioned media, 67 minutes, 37° C., 0.3 to 50 μM compound; read-out: Lp ABC IC50
Protocol: LPABC Screen The lipoprotein(a), [Lp(a)], biochemical coupling assay (LPABC) is used to characterize inhibitors of the apolipoprotein(a), [apo(a)], apolipoproteinB-100, [apoB-100], coupling reaction that generates Lp(a). Conditioned media from 293 cells (ATCC CRL-1573), permanently transfected with an apo(a) 17-kringle cDNA expression construct (pcDNA-AMP, In Vitrogen, Carlsbad, Calif.) using standard molecular biology techniques, was used as a source of recombinant apo(a) is diluted 1:3 with phosphate buffered saline (PBS) and 90 μL is pipetted into each well of a 96-well plate and placed into a 37° C. incubator for 10 minutes. Twenty microliters of a 0.3 to 50 μM solution of a compound of the present invention in PBS is added to the warmed plate. Ninety microliters of HepG2 (ATCC HB-8065) cell conditioned media diluted 1:3 with PBS is added to the apo(a)/compound mixture and mixed by pipetting up and down 5 times. The reaction is incubated for 67 minutes in a 37° C. incubator. A 100 μL aliquot of the reaction is removed and assayed for its Lp(a) content by an enzyme linked immunosorbent assay (ELISA).

Row | Structure (SMILES) | IC50 [2] | IC50 [1]
1 | COc1ccc(N(Cc2ccccc2-c2ccccc2)C(=O)c2ccccc2OCc2ccccc2)cc1 [Example 107, 2-Benzyloxy-N-biphenyl-2-ylmethyl-N-(4-methoxy-phenyl)-benzamide] | > 50 µM | 15.4 µM
2 | COc1ccc(N(Cc2ccccc2-c2ccccc2)C(=O)c2cccc3c2OCO3)cn1 [Example 109, Benzo[1,3]dioxole-4-carboxylic acid biphenyl-2-ylmethyl-(6-methoxy-pyridin-3-yl)-amide] | > 50 µM | 11.8 µM
3 | CCOc1ccccc1C(=O)N(Cc1ccccc1-c1ccccc1)c1ccccn1 [Example 110, N-Biphenyl-2-ylmethyl-2-ethoxy-N-pyridin-2-yl-benzamide] | > 50 µM | 14 µM
4 | O=C(c1ccccc1Br)N(Cc1ccccc1-c1ccccc1)c1ccccn1 [Example 111, N-Biphenyl-2-ylmethyl-2-bromo-N-pyridin-2-yl-benzamide] | > 50 µM | 18.7 µM
5 | O=C(c1ccccc1[N+](=O)[O-])N(Cc1ccccc1-c1ccccc1)c1ccccn1 [Example 112, N-Biphenyl-2-ylmethyl-2-nitro-N-pyridin-2-yl-benzamide] | > 50 µM | 23.7 µM
6 | O=C(c1ccccc1OCc1ccccc1)N(Cc1ccccc1-c1ccccc1)c1ccccn1 [Example 113, 2-Benzyloxy-N-biphenyl-2-ylmethyl-N-pyridin-2-yl-benzamide] | > 50 µM | 25.1 µM
7 | O=C(c1sc2ccccc2c1Cl)N(Cc1ccccc1-c1ccccc1)c1cccnc1 [Example 115, 3-Chloro-benzo[b]thiophene-2-carboxylic acid biphenyl-2-ylmethyl-pyridin-3-yl-amide] | > 50 µM | 23.5 µM
8 | O=C(c1cc2ccccc2s1)N(Cc1ccccc1-c1ccccc1)c1cccnc1 [Example 116, Benzo[b]thiophene-2-carboxylic acid biphenyl-2-ylmethyl-pyridin-3-yl-amide] | > 50 µM | 9.3 µM
9 | CCOc1ccccc1C(=O)N(Cc1ccccc1-c1ccccc1)c1ccncc1 [Example 118, N-Biphenyl-2-ylmethyl-2-ethoxy-N-pyridin-4-yl-benzamide] | > 50 µM | 5.8 µM
10 | O=C(c1cccc2c1OCO2)N(Cc1ccccc1-c1ccccc1)c1ccncc1 [Example 120, Benzo[1,3]dioxole-4-carboxylic acid biphenyl-2-ylmethyl-pyridin-4-yl-amide] | > 50 µM | 18.1 µM
11 | O=C(c1ccccc1Br)N(Cc1ccccc1-c1ccccc1)c1ccncc1 [Example 121, N-Biphenyl-2-ylmethyl-2-bromo-N-pyridin-4-yl-benzamide] | > 50 µM | 3.8 µM
12 | O=C(c1ccccc1[N+](=O)[O-])N(Cc1ccccc1-c1ccccc1)c1ccncc1 [Example 122, N-Biphenyl-2-ylmethyl-2-nitro-N-pyridin-4-yl-benzamide] | > 50 µM | 22.4 µM
13 | O=C(c1ccccc1OCc1ccccc1)N(Cc1ccccc1-c1ccccc1)c1ccncc1 [Example 123, 2-Benzyloxy-N-biphenyl-2-ylmethyl-N-pyridin-4-yl-benzamide] | > 50 µM | 2.3 µM
14 | CCOc1ccc(C(=O)N(Cc2ccccc2-c2ccccc2)c2ccncc2)cc1 [Example 124, N-Biphenyl-2-ylmethyl-4-ethoxy-N-pyridin-4-yl-benzamide] | > 50 µM | 3.3 µM
15 | O=C(c1cc2ccccc2s1)N(Cc1cccnc1)Cc1ccccc1-c1ccccc1 [Example 125, Benzo[b]thiophene-2-carboxylic acid biphenyl-2-ylmethyl-pyridin-3-ylmethyl-amide] | > 50 µM | 23.9 µM
16 | O=C(c1ccccc1SCc1ccccc1)N(Cc1ccccc1-c1ccccc1)c1ccc(Cl)cc1 [Example 132, 2-Benzylsulfanyl-N-biphenyl-2-ylmethyl-N-(4-chloro-phenyl)-benzamide] | > 50 µM | > 74 µM
17 | COc1ccc(N(Cc2ccccc2-c2ccccc2)C(=O)c2cccc(Sc3ccccc3)c2)cc1OC [Example 136, N-Biphenyl-2-ylmethyl-N-(3,4-dimethoxy-phenyl)-3-phenylsulfanyl-benzamide] | > 50 µM | 33.8 µM

Second part, led by results:

Row | IC50 [2] | Structure (SMILES) | IC50 [1]
18 | > 50 µM | COc1ccc(N(Cc2ccccc2-c2ccccc2)C(=O)c2ccc(OC)cc2OC)cc1 [Example 106, N-Biphenyl-2-ylmethyl-2,4-dimethoxy-N-(4-methoxy-phenyl)-benzamide] | 9.3 µM
19 | > 50 µM | COc1ccc(N(Cc2ccccc2-c2ccccc2)C(=O)c2ccccc2Br)cc1 [Example 108, N-Biphenyl-2-ylmethyl-2-bromo-N-(4-methoxy-phenyl)-benzamide] | 37.7 µM
20 | > 50 µM | O=C(c1ccccc1Br)N(Cc1ccccc1-c1ccccc1)c1cccnc1 [Example 114, N-Biphenyl-2-ylmethyl-2-bromo-N-pyridin-3-yl-benzamide] | 26.7 µM
21 | > 50 µM | O=C(c1ccccc1[N+](=O)[O-])N(Cc1ccccc1-c1ccccc1)c1cccnc1 [Example 117, N-Biphenyl-2-ylmethyl-2-nitro-N-pyridin-3-yl-benzamide] | 18 µM
22 | > 50 µM | COc1ccccc1C(=O)N(Cc1ccccc1-c1ccccc1)c1ccncc1 [Example 119, N-Biphenyl-2-ylmethyl-2-methoxy-N-pyridin-4-yl-benzamide] | 4.8 µM
23 | > 50 µM | COc1ccc(N(Cc2ccccc2-c2ccccc2)C(=O)c2ccccc2SC)cc1 [Example 126, N-Biphenyl-2-ylmethyl-N-(4-methoxy-phenyl)-2-methylsulfanyl-benzamide] | 16 µM
24 | > 50 µM | COc1ccc(N(Cc2ccccc2-c2ccccc2)C(=O)c2ccccc2SC(C)C)cc1 [Example 127, N-Biphenyl-2-ylmethyl-2-isopropylsulfanyl-N-(4-methoxy-phenyl)-benzamide] | 49.4 µM
25 | > 50 µM | CCCSc1ccccc1C(=O)N(Cc1ccccc1-c1ccccc1)c1cccc(OC)c1 [Example 128, N-Biphenyl-2-ylmethyl-N-(3-methoxy-phenyl)-2-propylsulfanyl-benzamide] | 46.8 µM
26 | > 50 µM | COc1cccc(N(Cc2ccccc2-c2ccccc2)C(=O)c2ccccc2SC)c1 [Example 129, N-Biphenyl-2-ylmethyl-N-(3-methoxy-phenyl)-2-methylsulfanyl-benzamide] | 6.5 µM
27 | > 50 µM | COc1cccc(N(Cc2ccccc2-c2ccccc2)C(=O)c2ccccc2SC(C)C)c1 [Example 130, N-Biphenyl-2-ylmethyl-2-isopropylsulfanyl-N-(3-methoxy-phenyl)-benzamide] | 31.4 µM
28 | > 50 µM | COc1cccc(N(Cc2ccccc2-c2ccccc2)C(=O)c2ccccc2SCc2ccccc2)c1 [Example 131, 2-Benzylsulfanyl-N-biphenyl-2-ylmethyl-N-(3-methoxy-phenyl)-benzamide] | 40.1 µM
29 | > 50 µM | CCCSc1ccccc1C(=O)N(Cc1ccccc1-c1ccccc1)c1ccc(OC)c(OC)c1 [Example 133, N-Biphenyl-2-ylmethyl-N-(3,4-dimethoxy-phenyl)-2-propylsulfanyl-benzamide] | 16.7 µM
30 | > 50 µM | COc1ccc(N(Cc2ccccc2-c2ccccc2)C(=O)c2ccccc2SC)cc1OC [Example 134, N-Biphenyl-2-ylmethyl-N-(3,4-dimethoxy-phenyl)-2-methylsulfanyl-benzamide] | 12.9 µM
31 | > 50 µM | COc1ccc(N(Cc2ccccc2-c2ccccc2)C(=O)c2ccccc2SC(C)C)cc1OC [Example 135, N-Biphenyl-2-ylmethyl-N-(3,4-dimethoxy-phenyl)-2-isopropylsulfanyl-benzamide] | 21.9 µM
32 | > 50 µM | COc1ccc(N(Cc2ccccc2-c2ccccc2)C(=O)c2ccccc2SCc2ccccc2)cc1OC [Example 137, 2-Benzylsulfanyl-N-biphenyl-2-ylmethyl-N-(3,4-dimethoxy-phenyl)-benzamide] | 9.8 µM
33 | > 15 µM | CCC[S+]([O-])c1ccccc1C(=O)N(Cc1ccccc1-c1ccccc1)c1ccc(OC)cc1 (stereo not drawn) [Example 138, N-Biphenyl-2-ylmethyl-N-(4-methoxy-phenyl)-2-(propane-1-sulfinyl)-benzamide] | 7 µM
